Test results reported in patent US20060142384A1, “2-Oxyamino-1-cyclopentene-1-nitriles as material protective agents” (priority 2002, published 2006).

Tests used:
Assay type in all cases: cell-based
Chaetomium globosum = assay: MIC on malt extract agar against fungi; details: 336 h, 2 weeks at 28° C., 60 to 70% relative atmospheric humidity, read-out: Minimum inhibitory concentrations Chaetomium globosum
Description: (§1) The MIC was determined after 2 weeks of storage at 28° C. and 60 to 70% relative atmospheric humidity.

Penicillium brevicaule = assay: MIC on malt extract agar against fungi; details: 336 h, 2 weeks at 28° C., 60 to 70% relative atmospheric humidity, read-out: Minimum inhibitory concentrations Penicillium brevicaule
Description: as §1

Bacillus subtilis = assay: MIC on Landy agar against bacteria; details: 72 h, 3 days at 28° C., 60-70% relative atmospheric humidity, read-out: Minimum inhibitory concentrations Bacillus subtilis
Description: (§2) A defined Landy Agar was admixed with the active compounds according to the invention in concentrations of […]. The MIC was determined after 3 days of storage at 28° C. and 60-70% relative atmospheric humidity.

Pseudomonas aeroginosa = assay: MIC on Landy agar against bacteria; details: 72 h, 3 days at 28° C., 60-70% relative atmospheric humidity, read-out: Minimum inhibitory concentrations Pseudomonas aeroginosa
Description: as §2

Structure (SMILES) | MIC (Chaetomium globosum) [µg/mL] | MIC (Penicillium brevicaule) [µg/mL] | MIC (Bacillus subtilis) [µg/mL] | MIC (Pseudomonas aeroginosa) [µg/mL]
Cc1ccc(CONC2=C(C#N)CCC2)cc1 [Example 12] | < 400 | < 400 |  | 
N#CC1=C(NO)CCC1 [Example 1, 2-(Hydroxyamino)-1-cyclopentene-1-carbonitrile] |  |  | < 400 | < 400
N#CC1=C(NOCc2ccc(Cl)cc2)CCC1 [Example 14] | < 400 | < 400 |  | 
N#CC1=C(NOCc2ccccc2)CCC1 [Example 3, 2-[(Benzyloxy)amino]-1-cyclopentene-1-carbonitrile] | < 400 | < 400 |  | 
CC(C)C(=O)ON(C(=O)C(C)C)C1=C(C#N)CCC1 [Example 4, N-(2-Cyano-1-cyclopenten-1-yl)-N-(isobutyryloxy)-2-methylpropanamide] | < 400 | < 400 | < 400 | < 400
